Experimental data taken from US20230266302A1, “SYNTHESIS AND USE OF N-BENZYL SULFONAMIDES” (THE UNIVERSITY OF TULSA, priority 2020, published 2023).

Assays:
Test in all cases: ATP level assay (CellTiter-Glo), percent of control
Type in all cases: cell-based
[1] = tested on: HDF (normal cells); settings: two hour incubation; for activity at 100 µM: 2 h, compound alone, control DMSO, read-out: POC (percent of control) HDF
[2] = tested on: T47D (breast cancer); settings: two hour incubation; for activity at 100 µM: Homo sapiens, T47D, 2 h, compound alone, control DMSO, read-out: POC (percent of control) T47D
[3] = tested on: MCF10A (non-cancerous breast); settings: two hour incubation; for activity at 100 µM: Homo sapiens, MCF-10A, 2 h, compound alone, control DMSO, read-out: POC (percent of control) MCF10A
[4] = tested on: MDA-MB (breast cancer); settings: two hour incubation; for activity at 100 µM: 2 h, compound alone, control DMSO, read-out: POC (percent of control) MDA-MB
[5] = tested on: H293 (kidney cancer); settings: two hour incubation; for activity at 100 µM: 2 h, compound alone, control DMSO, read-out: POC (percent of control) H293
[6] = tested on: BxPC3 (pancreatic cancer); settings: two hour incubation; for activity at 100 µM: Homo sapiens, BXPC-3, 2 h, compound alone, control DMSO, read-out: POC (percent of control) BxPC3
[7] = tested on: HeLa (cervical cancer); settings: two hour incubation; for activity at 100 µM: Homo sapiens, HeLa, 2 h, compound alone, control DMSO, read-out: POC (percent of control) HeLa
[8] = tested on: MCF7 (breast cancer); settings: two hour incubation; for activity at 100 µM: Homo sapiens, MCF7, 2 h, compound alone, control DMSO, read-out: POC (percent of control) MCF7
[9] = tested on: SkBr3 (breast cancer); settings: two hour incubation; for activity at 100 µM: Homo sapiens, SK-BR-3, 2 h, compound alone, control DMSO, read-out: POC (percent of control) SkBr3
[10] = compound 100 uM + 2DG (about 10-20 mM)
[11] = compound 100 uM + rotenone (approximately 1.25 μM)

SMILES	activity at 100 µM [1]	POC (percent of control) HDF [1, 10]	POC (percent of control) HDF [1, 11]	activity at 100 µM [2]	POC (percent of control) T47D [2, 10]	POC (percent of control) T47D [2, 11]	activity at 100 µM [3]	POC (percent of control) MCF10A [3, 10]	POC (percent of control) MCF10A [3, 11]	activity at 100 µM [4]	POC (percent of control) MDA-MB [4, 10]	POC (percent of control) MDA-MB [4, 11]	activity at 100 µM [5]	POC (percent of control) H293 [5, 10]	POC (percent of control) H293 [5, 11]	activity at 100 µM [6]	POC (percent of control) BxPC3 [6, 11]	activity at 100 µM [7]	POC (percent of control) HeLa [7, 10]	POC (percent of control) HeLa [7, 11]	also measured
Cc1cccc2c(CNS(=O)(=O)c3ccccc3)c[nH]c12 [Compound 6, N-[(7-methyl-1H-indol-3-yl)methyl]benzenesulfonamide]	48.8%	37.7% of control	61.3% of control	23.7%	19.7% of control	39.1% of control	52.3%	41.3% of control	87.8% of control	57.2%	58.5% of control	67.3% of control	62.6%	31.6% of control	49.6% of control	68.9%	69.7% of control	75.3%	47.3% of control	66.9% of control	POC (percent of control) BxPC3 [6, 10]: 33.4% of control; activity at 100 µM [8]: 72%; POC (percent of control) MCF7 [8, 10]: 41% of control; POC (percent of control) MCF7 [8, 11]: 63.4% of control; activity at 100 µM [9]: 97%; POC (percent of control) SkBr3 [9, 10]: 55.9% of control; POC (percent of control) SkBr3 [9, 11]: 79.4% of control
O=S(=O)(NCc1c[nH]c2ccccc12)c1ccc(Cl)cc1 [Compound 2, N-[(1H-indol-3-yl)methyl]-4-chlorobenzenesulfonamide]	49.3%	37.5% of control	57.6% of control	22.2%	16.6% of control	30.8% of control	42.9%	23.7% of control	58.7% of control	48.1%	37.8% of control	55.7% of control	43.8%	20% of control	47.6% of control	69%	86.4% of control	64.6%	30.8% of control	57.5% of control	activity at 100 µM [8]: 70.1%; POC (percent of control) MCF7 [8, 10]: 25.1% of control; POC (percent of control) MCF7 [8, 11]: 56.9% of control; activity at 100 µM [9]: 72.6%; POC (percent of control) SkBr3 [9, 10]: 38% of control; POC (percent of control) SkBr3 [9, 11]: 72.6% of control
Cc1ccc(S(=O)(=O)NCc2c[nH]c3cccc(Br)c23)cc1 [Compound 5, N-[(4-bromo-1H-indol-3-yl)methyl]-4-methylbenzenesulfonamide]	70.5%	16.1% of control	83.5% of control	36.6%	13.8% of control	36% of control	55.3%	15.8% of control	45% of control	54.4%	24.7% of control	24.6% of control	49.7%	17.2% of control	41.2% of control	54.3%	36.5% of control	76.1%	22.3% of control	31.9% of control	POC (percent of control) BxPC3 [6, 10]: 10.5% of control; activity at 100 µM [8]: 86.4%; POC (percent of control) MCF7 [8, 10]: 18.7% of control; POC (percent of control) MCF7 [8, 11]: 55.6% of control; activity at 100 µM [9]: 71.1%; POC (percent of control) SkBr3 [9, 10]: 37.1% of control; POC (percent of control) SkBr3 [9, 11]: 60% of control
